Source: patent publication US10294217B2, “Fluoroindole derivatives as muscarinic M1 receptor positive allosteric modulators” (Suven Life Sciences Limited, priority 2015, dated 2019)

Columns and labels:
Male Wistar rats = experiment: Object recognition task model - scopolamine challenge; format: in vivo; settings: p.o.; for Exploration time Familiar object / Exploration time Novel object: mean ± S.E.M, choice trial 3 minutes after T1
Protocol: Object Recognition Task Model—Scopolamine challenge
The cognition enhancing properties of compounds of this invention were estimated by using this model.
Male Wistar rats (8-10 weeks old) were used as experimental animals. Four animals were housed in each cage. Animals were kept on 20% food deprivation from a day prior to experimentation. Water was provided ad libitum throughout the experiment. Animals were maintained on a 12 hours light/dark cycle in temperature and humidity controlled room. The experiment was carried out in an open field made up of acrylic. Rats were habituated to individual arenas (open field) for 1 hour in the absence of any objects on day 1.
Rats received vehicle or vehicle and scopolamine or compound of the formula (I) and scopolamine, before the familiar (T1). During the familiarization phase, (T1), the rats were placed individually in the arena for 3 minutes, in which two identical objects (a1 and a2) were positioned 10 cm from the wall. 3 minutes after T1, trial for memory test was performed. The same rats were placed in the same arena as they were placed in T1 trial. During the choice phase (T2) rats were allowed to explore the arena for 3 minutes in presence of a copy of familiar object (a3) and one novel object (b). During the T1 and T2 trial, explorations of each object (defined as sniffing, licking, chewing or having moving vibrissae whilst directing the nose towards the object at a distance of less than 1 cm) were recorded using stopwatch. • T1 is the total time spent exploring the familiar objects (a1+a2). • T2 is the total time spent exploring the familiar object and novel object (a3+b). • Discriminative index=Time spent with novel object/(time spent with novel and familiar object).

[1] = test system: cerebral blood flow in the frontal cortex; experiment: Modulation of cerebral blood flow in frontal cortex; format: in vivo; settings: anaesthetized rats, intravenous, Laser Doppler, FIG. 2
Protocol: Modulation of Cerebral Blood Flow in Frontal Cortex:
The effect of test compound on modulation of cerebral blood flow was evaluated using rats.
Rats were acclimatized to the laboratory environment for at least 7 days. Rats (300-350 grams) were housed in a group of four in a controlled environment (Temp=21±3° C.; Humidity=30-70%) and maintained on a 12-hour light/dark cycle with lights on at 07:00 AM. Food and water was provided ad libitum.
Rats were anaesthetized with 12% urethane (i.p.). Animal's body core temperature was maintained at 37° C. via heating pad and rectal temperature probe. A small incision was made at one of the ventral side of the hind limb and the femoral vein was cannulated with PE10 tubing for drug application. Then animal was placed into a stereotaxic frame and a midline incision was made to expose the skull. A burr hole was drilled over the frontal cortex (stereotaxic coordinates 1 mm anterior and 4 mm lateral to bregma). Oxygen was supplied through the nose cone of the seterotaxic apparatus which was connected to the controlled gaseous supplier with a flow of 200 mL/minute. Laser Doppler probe (AD Instruments Inc) was placed over the hole to monitor cerebral blood flow. […] Data obtained was calculated as percent increase relative to resting basal blood flow level. […]

Cl.O=C(N[C@H]1CCNC[C@H]1F)c1cn(Cc2ccnc(F)c2)c2c(F)ccc(F)c12 (single isomer, unassigned; isomer-i) [Example 22, Cis-N-(3-Fluoropiperidin-4-yl)-1-(2-fluoropyridin-4-ylmethyl)-4,7-difluoro-1H-indole-3-carboxamide hydrochloride (Isomer-I)]
Inference (Male Wistar rats; 1 mg/kg): Active | Exploration time Familiar object (Male Wistar rats; 1 mg/kg): 21.34 ± 3.65 s | Exploration time Novel object (Male Wistar rats; 1 mg/kg): 29.70 ± 1.72 s

Cn1cc(Cn2cc(C(=O)N[C@H]3CCCC[C@@H]3O)c3c(F)ccc(F)c32)cn1 [Example 5, N-[(1S,2S)-2-Hydroxycyclohexyl]-1-(1-methyl-1H-pyrazol-4-ylmethyl)-4,7-difluoro-1H-indole-3-carboxamide]
Inference (Male Wistar rats; 1 mg/kg): Active | Exploration time Familiar object (Male Wistar rats; 1 mg/kg): 13.61 ± 1.79 s | Exploration time Novel object (Male Wistar rats; 1 mg/kg): 25.72 ± 3.67 s

O=C(N[C@H]1CCCC[C@@H]1O)c1cn(Cc2ccnc(Cl)c2)c2cccc(F)c12 [Example 2, N-[(1S,2S)-2-Hydroxycyclohexyl]-1-(2-chloropyridin-4-ylmethyl)-4-fluoro-1H-indole-3-carboxamide]
Inference (Male Wistar rats; 0.3 mg/kg): Active | Exploration time Familiar object (Male Wistar rats; 0.3 mg/kg): 14.29 ± 1.92 s | Exploration time Novel object (Male Wistar rats; 0.3 mg/kg): 20.93 ± 2.89 s

Cn1cc(Cn2cc(C(=O)N[C@H]3CCCC[C@@H]3O)c3c(F)cccc32)cn1 [Example 1, N-[(1S,2S)-2-Hydroxycyclohexyl]-1-(1-methyl-1H-pyrazol-4-ylmethyl)-4-fluoro-1H-indole-3-carboxamide]
cerebral blood flow [1]: significantly increased the cerebral blood flow | Inference (Male Wistar rats; 0.3 mg/kg): Active | Exploration time Familiar object (Male Wistar rats; 0.3 mg/kg): 7.54 ± 1.93 s | Exploration time Novel object (Male Wistar rats; 0.3 mg/kg): 13.07 ± 1.79 s
